The source made the active and inactive calls. No cut-off for these calls is given here.
Tests used:
[1] = target: Transcription factor p65 (Homo sapiens) (UniProt Q04206); experiment: Effect on p65 phosphorylation in human HCCLM3 cells at 2 mM after 48 hrs by western blot analysis; type: cell-based
Huh-7 [2] = experiment: Anti-invasive activity in human HuH7 cells assessed as invasive cell count at 2 mM after 48 hrs using Giemsa dye by matrigel based microscopic method (reference value: 36 +/- 6); type: functional
Huh-7 [3] = experiment: Antimigratory activity in human HuH7 cells assessed as wound closure at 2 mM after 48 hrs by inverted microscopic method; type: functional, cell-based
[4] = target: T1, MAP kinase p38 (Homo sapiens) (UniProt O15264+Q15759+Q16539+P53778); experiment: Reduction in p38 phosphorylation in human HuH7 cells at 2 mM after 48 hrs by western blot analysis; type: cell-based
Huh-7 [5] = experiment: Antiproliferative activity against human HuH7 cells assessed as reduction in cell viability after 48 hrs by CCK8 assay; type: functional, cell-based; conditions: Huh-7, 48 h
HCCLM3 [6] = experiment: Downregulation of slug in human HCCLM3 cells at 2 mM after 48 hrs by western blot analysis; type: functional, cell-based
HCCLM3 [7] = experiment: Anti-invasive activity in human HCCLM3 cells assessed as invasive cell count at 2 mM after 48 hrs using Giemsa dye by matrigel based microscopic method (reference value: 64.7 +/- 9.3); type: functional
HCCLM3 [8] = experiment: Cytotoxicity against human HCCLM3 cells after 48 hrs by CCK8 assay; type: cell-based; conditions: hcclm3, 48 h
HCCLM3 [9] = experiment: Upregulation of E-cadherin in human HCCLM3 cells after 48 hrs by western blot analysis; type: functional, cell-based
[10] = target: T1, MAP kinase p38 (Homo sapiens); experiment: Reduction in p38 phosphorylation in human HCCLM3 cells at 2 mM after 48 hrs by western blot analysis; type: cell-based
[11] = target: Mitogen-activated protein kinase; ERK1/ERK2 (Homo sapiens) (UniProt P27361+P28482); experiment: Effect on ERK1/2 phosphorylation in human HCCLM3 cells at 2 mM after 48 hrs by western blot analysis; type: cell-based
Homo sapiens [12] = species: Homo sapiens; experiment: Reduction in Akt phosphorylation in human HCCLM3 cells at 2 mM after 48 hrs by western blot analysis; type: cell-based
HCCLM3 [13] = experiment: Antiproliferative activity against human HCCLM3 cells assessed as reduction in cell viability after 48 hrs by CCK8 assay; type: functional, cell-based; conditions: HCCLM3, 48 h
HCCLM3 [14] = experiment: Antimigratory activity in human HCCLM3 cells assessed as wound closure at 2 mM after 48 hrs by inverted microscopic method; type: functional, cell-based
Homo sapiens [15] = species: Homo sapiens; experiment: Reduction in Akt phosphorylation in human HuH7 cells at 2 mM after 48 hrs by western blot analysis; type: cell-based

Chain of Transcription factor p65 (Homo sapiens) (Q04206 whole entry): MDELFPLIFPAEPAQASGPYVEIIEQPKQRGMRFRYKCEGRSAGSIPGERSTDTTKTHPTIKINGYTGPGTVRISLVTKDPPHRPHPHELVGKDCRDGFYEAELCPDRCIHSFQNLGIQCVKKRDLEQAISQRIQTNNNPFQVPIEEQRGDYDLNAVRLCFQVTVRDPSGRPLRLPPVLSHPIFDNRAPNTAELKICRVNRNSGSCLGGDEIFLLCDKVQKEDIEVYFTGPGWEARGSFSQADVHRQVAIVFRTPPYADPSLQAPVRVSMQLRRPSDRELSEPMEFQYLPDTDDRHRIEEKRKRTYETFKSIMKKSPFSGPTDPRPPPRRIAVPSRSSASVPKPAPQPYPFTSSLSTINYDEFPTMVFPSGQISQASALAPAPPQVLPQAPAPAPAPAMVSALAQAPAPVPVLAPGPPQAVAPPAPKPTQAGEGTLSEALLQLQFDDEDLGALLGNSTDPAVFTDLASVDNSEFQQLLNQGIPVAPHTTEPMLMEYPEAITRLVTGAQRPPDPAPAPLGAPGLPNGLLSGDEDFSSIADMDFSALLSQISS
Chain of Mitogen-activated protein kinase; ERK1/ERK2 (Homo sapiens) (P27361 whole entry, looked up): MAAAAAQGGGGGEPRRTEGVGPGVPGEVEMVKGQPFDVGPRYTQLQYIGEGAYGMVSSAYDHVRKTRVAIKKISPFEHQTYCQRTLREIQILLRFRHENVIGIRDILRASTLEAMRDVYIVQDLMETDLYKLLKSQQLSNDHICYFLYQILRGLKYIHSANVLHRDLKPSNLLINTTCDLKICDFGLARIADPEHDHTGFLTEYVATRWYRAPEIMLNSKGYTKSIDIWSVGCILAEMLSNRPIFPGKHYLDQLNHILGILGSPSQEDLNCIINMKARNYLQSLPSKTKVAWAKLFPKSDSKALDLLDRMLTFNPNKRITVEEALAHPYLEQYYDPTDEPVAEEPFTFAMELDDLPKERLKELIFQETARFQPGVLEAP
Chain of Mitogen-activated protein kinase; ERK1/ERK2 (Homo sapiens) (P28482 whole entry, looked up): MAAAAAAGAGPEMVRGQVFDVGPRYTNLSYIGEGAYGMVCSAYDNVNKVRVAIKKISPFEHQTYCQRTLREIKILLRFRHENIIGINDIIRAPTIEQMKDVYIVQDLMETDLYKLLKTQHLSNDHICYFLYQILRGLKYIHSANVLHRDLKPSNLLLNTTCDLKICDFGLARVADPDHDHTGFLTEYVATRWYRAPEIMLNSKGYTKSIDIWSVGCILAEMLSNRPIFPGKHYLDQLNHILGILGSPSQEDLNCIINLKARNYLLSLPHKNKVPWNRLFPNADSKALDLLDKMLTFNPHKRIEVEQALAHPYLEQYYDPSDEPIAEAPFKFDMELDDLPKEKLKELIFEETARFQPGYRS

Question: What does the source list for `COc1cc(/C=C/C(=O)NCC(O)c2ccc(O)cc2)ccc1O` (configuration not stated)?
Answer: Activity [1]: inactive; Activity (Huh-7 [2]): 11.7; Activity (Huh-7 [3]): inactive; Activity [4]: Active; IC50 (Huh-7 [5]): 1990 µM; Activity (HCCLM3 [6]): Active; Activity (HCCLM3 [7]): 23.3; Activity (HCCLM3 [8]): Non-Toxic; Activity (HCCLM3 [9]): Active; Activity [10]: Active; Activity [11]: inactive; Activity (Homo sapiens [12]): Active; IC50 (HCCLM3 [13]): 2270 µM; Activity (HCCLM3 [14]): inactive; Activity (Homo sapiens [15]): Active

Question: What does the source list for `O=c1[nH]cc(F)c(=O)[nH]1` [FLUOROURACIL]?
Answer: IC50 (Huh-7 [5]): 2980 µM; IC50 (HCCLM3 [13]): 1840 µM
